# From BindingDB's records for patent US11970463 (Astrazeneca, 2024)
# Biological target: Potassium voltage-gated channel subfamily H member 2 (Homo sapiens, UniProt Q12809)
# Test: hERG Assay
# Procedure: Experiments were performed on the SyncroPatch 384PE (Nanion Technologies) high throughput patch clamp platform at rt and used medium resistance chips with 4 patch holes per site. hERG-expressing Chinese hamster ovary K1 (CHO) cell line were used in assay-ready format and kept in liquid nitrogen until use. 2 vials of cells (10×10^6 cells per vial) were thawed and added to 20 mL Hepes-buffered saline solution (HBSS). HBSS comprised 140 mM NaCl, 4 mM KCl, 10 mM HEPES and 5 mM Glucose (pH 7.4). The internal patch clamp solution was KF 120 mM, KCl 20 mM, HEPES 10 mM, EGTA 10 mM, and 25 μM Escin (pH7.2). After the initial sealing process was complete, a seal enhancer solution comprising HBSS supplemented with 10 mM CaCl2 and 1 mM MgCl2 was applied to cells. The external solution was then exchanged (4 times) for external patch clamp solution comprising NaCl 80 mM, KCl 4 mM, HEPES 10 mM, CaCl2 2 mM, MgCl2 1 mM, glucose 5 mM, and NMDG 60 mM (pH 7.4). All solutions were stored at rt, except Escin, which was stored at 4° C. All compounds were dispensed in greiner-bio 384 well plates and tested in a 6 point cumulative assay (final DMSO concentration 0.33%). Only wells that passed acceptance criteria (30 MegaOhm seal resistance, Z prime >0.4 and current size >0.2 nA) were used in this analysis.
# Sequence of Potassium voltage-gated channel subfamily H member 2 (Q12809 whole entry): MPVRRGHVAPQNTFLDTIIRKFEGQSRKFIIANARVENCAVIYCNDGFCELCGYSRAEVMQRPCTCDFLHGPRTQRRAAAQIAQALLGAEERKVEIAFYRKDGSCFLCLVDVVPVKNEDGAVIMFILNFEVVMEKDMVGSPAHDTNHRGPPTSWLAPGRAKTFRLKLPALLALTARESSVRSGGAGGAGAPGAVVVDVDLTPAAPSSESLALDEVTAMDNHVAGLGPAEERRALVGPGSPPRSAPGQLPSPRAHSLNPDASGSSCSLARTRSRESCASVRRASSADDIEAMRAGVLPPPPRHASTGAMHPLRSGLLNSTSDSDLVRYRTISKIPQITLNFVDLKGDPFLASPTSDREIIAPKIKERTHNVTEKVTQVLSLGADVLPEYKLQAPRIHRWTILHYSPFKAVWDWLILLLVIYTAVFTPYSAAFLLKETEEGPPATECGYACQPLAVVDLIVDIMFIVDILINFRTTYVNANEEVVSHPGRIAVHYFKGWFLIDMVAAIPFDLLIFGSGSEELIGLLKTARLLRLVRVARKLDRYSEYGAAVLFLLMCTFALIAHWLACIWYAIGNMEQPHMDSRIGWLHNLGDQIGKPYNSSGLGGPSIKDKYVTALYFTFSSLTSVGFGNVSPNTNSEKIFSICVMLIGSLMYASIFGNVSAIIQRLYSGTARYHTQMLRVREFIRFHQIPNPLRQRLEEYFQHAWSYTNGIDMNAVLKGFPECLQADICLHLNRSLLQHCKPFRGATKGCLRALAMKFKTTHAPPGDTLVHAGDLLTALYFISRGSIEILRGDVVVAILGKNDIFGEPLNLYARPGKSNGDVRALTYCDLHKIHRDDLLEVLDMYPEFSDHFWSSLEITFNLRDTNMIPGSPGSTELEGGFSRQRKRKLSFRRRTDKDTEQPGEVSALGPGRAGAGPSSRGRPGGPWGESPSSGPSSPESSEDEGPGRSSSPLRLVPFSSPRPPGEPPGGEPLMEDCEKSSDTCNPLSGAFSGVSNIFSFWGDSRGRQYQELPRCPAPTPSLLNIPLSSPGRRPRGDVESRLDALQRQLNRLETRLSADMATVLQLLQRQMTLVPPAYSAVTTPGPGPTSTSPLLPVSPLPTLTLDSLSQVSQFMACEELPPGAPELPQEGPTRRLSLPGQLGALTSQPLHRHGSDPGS
smiles,measurement,value
"C[C@@]1(O)CC[C@@H](Nc2nnc(-c3ccc(C(F)(F)F)cc3O)c3ccncc23)C1 [US11970463, Example 38]",IC50,34 µM
